Assay results: patent US8765791B2, “Method of treating cancer using a neuropeptide Y 5R (NP Y5R) antagonist” (University Health Network, priority 2008, dated 2014)

Assays:
MCF-7 cells = assay: breast cancer xenograft model (Example 4); assay type: in vivo, SCID mice
Description: MCF-7 cells were dissociated from flask surfaces then counted and spun down with a final concentration of 10×10^7 cells/ml produced. A total of 20 SCID mice, aged 6-8 weeks (CRL-CB17), were injected with 10×10^6 cells into lower mammary fat pads. After 3 weeks, all mice were inspected for tumor establishment and were measured for size (FIG. 5).
For this study, a total of 15 mice were selected from a group of 20, which had similar tumor sizes (3×3). Subsequently, these 15 mice were divided into three groups of 5. The first group, the control group, received the vehicle only (20% ETOH and 80% PEG 400); the second group received a dosage of 30 mg/kg of MK0557; and the third group received a dosage of 15 mg/kg of MK0557.
All groups were injected everyday via IP for the first five days, followed by injections every other day.

Rat glioma cells = assay: brain cancer xenograft model (Example 7); assay type: in vivo, CB17-SCID mice
Description: (§1) Rat glioma cells (2×10^6) were implanted in CB17-SCID mice. The mice were treated with MK0557 at 30 mg/kg, or vehicle (15% of 0.5%) CMC (carboxymethylcelulose) (low viscosity) and 85% of 0.2% Tween80 in water) intraperitoneally daily for the first week followed by once every two days injections.

[1] = system: Colon cancer cells, HCT-15; assay: colon cancer xenograft model (Example 8); assay type: in vivo, CB17-SCID mice
Description: as §1, with “Colon cancer cells, HCT-15, (1×10^6)” for “Rat glioma cells (2×10^6)”, “mg/kg” for “mg/kg,”

[2] = system: Hodgkin Lymphoma cells, HD-MYZ; assay: Hodgkin lymphoma xenograft model (Example 12); assay type: in vivo, NOD-SCID mice; settings: 30 mg/kg i.p. 3/week, approximately 2 weeks
Text: Hodgkin lymphoma cells, HD-MYZ (1 million), were implanted s.c. on the right flank of NOD-SCID mice (Cat#001303, female, 4-6 weeks from Jackson laboratories, Bar Harbor, Me.). The mice were divided into four groups, 5 mice for each group. […] The tumor growth was monitored during the experiment. […] (FIG. 13)

[3] = system: Ovarian cancer cells SKOV-3; assay: ovarian cancer xenograft model (Example 13); assay type: in vivo, SCID mice; settings: 30 mg/kg i.p. 3/week
Text: Ovarian cancer cells SKOV-3 (5 millions) were implanted s.c. on the right flank of SCID mice (CB17, female, 4-6 weeks) (Charles River, Wilmington, Mass.). The mice were divided into four groups, 5 mice for each group. The treatments were started when the tumor volume reached at around 60 mm3, day 8 after tumor implantation. […] The tumor growth was monitored for the duration of the experiment. […] (FIG. 14)

[4] = system: Hodgkin Lymphoma cells, HD-MYZ; assay: Hodgkin lymphoma xenograft model, MK0557 vs AVASTIN (Example 14); assay type: in vivo, NOD-SCID mice; settings: for inhibition rate (tumor volume) / inhibition rate (tumor weight): versus vehicle
Text: Hodgkin lymphoma cells, HD-MYZ, were implanted in NOD-SCID mice. […] Tumor volume and tumor growth were monitored during the experiment.

mouse NPY6R = target: T1, mouse NPY6R (Mus musculus, UniProt Q61212); settings: at a concentration of 10 μM; cited from earlier work
T1 sequence (Q61212 1-371): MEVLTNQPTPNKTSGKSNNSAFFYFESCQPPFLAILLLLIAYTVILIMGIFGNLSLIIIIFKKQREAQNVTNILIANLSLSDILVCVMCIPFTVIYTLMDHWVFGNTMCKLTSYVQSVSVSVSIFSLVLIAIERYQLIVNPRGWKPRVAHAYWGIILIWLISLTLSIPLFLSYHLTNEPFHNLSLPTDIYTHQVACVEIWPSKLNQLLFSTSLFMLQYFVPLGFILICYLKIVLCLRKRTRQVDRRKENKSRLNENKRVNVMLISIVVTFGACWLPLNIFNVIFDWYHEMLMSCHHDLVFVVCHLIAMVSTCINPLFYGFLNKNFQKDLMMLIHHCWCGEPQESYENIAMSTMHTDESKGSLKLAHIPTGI

[5] = 30 mg/kg intraperitoneally daily first week then once every two days
[6] = 15 mg/kg i.p. every day×3 weeks
[7] = 60 mg/kg p.o. every day×3 weeks

For `O=C1O[C@]2(CC[C@H](C(=O)Nc3ccn(-c4ccccc4F)n3)CC2)c2cnccc21` [MK-0557, trans-N-[1-(2-fluorophenyl)-3-pyrazolyl]-3-oxospiro[6 azaisobenzofuran-1(3H), 1′-cyclohexane]-4′carboxamide], the mice tumor free (MCF-7 cells; 30 mg/kg IP, third week) was 4 out of 5, the tumor growth (MCF-7 cells; MCF-7 xenograft, 30 mg/kg and 15 mg/kg IP) was “dose-dependent inhibition of tumor growth” and the “tumor size in treated groups” value (MCF-7 cells; second week, 30 mg/kg and 15 mg/kg IP) was “tumor shrinkage was noticed”. The “effect on mouse body weights” value (Rat glioma cells; 30 mg/kg intraperitoneally) was “no obvious effect”, the tumor growth (Rat glioma cells; [5]) was “Tumor growth was inhibited” and the “effect on mouse body weights” value ([1]; 30 mg/kg intraperitoneally) was “no obvious effect”. For the same compound, the tumor growth [1, 5] was “Tumor growth was inhibited”, the tumor growth [2] was “inhibited tumor growth” and the tumor growth [3] was “inhibited tumor growth”. The “Mean Tumor Volume” value [4, 6] was 698.76±61.19 mm^3, the “Mean Tumor Weight” value [4, 6] was 0.40 ± 0.09 g and the “inhibition rate (tumor volume)” value [4, 6] was 73.13%. For the same compound, the “inhibition rate (tumor weight)” value [4, 6] was 84.19%, the “Mean Tumor Volume” value [4, 7] was 671.97±96.89 mm^3 and the “Mean Tumor Weight” value [4, 7] was 0.43 ± 0.17 g. The “inhibition rate (tumor volume)” value [4, 7] was 74.16%, the “inhibition rate (tumor weight)” value [4, 7] was 83.0% and the “binding to mouse NPY6R” value (mouse NPY6R) was “does not significantly bind”.
